Results as given in BigSolDB 2.1.

CC(=O)N[C@@H](Cc1ccc(O)cc1)C(=O)O
solubility (mole fraction)
Details	283.15 K	288.15 K	293.15 K	298.15 K	303.15 K	308.15 K	313.15 K	318.15 K	323.15 K
in acetone	0.106	0.116	0.132	0.136	0.145	0.152	0.166	0.181	0.197
in acetonitrile	0.00301	0.00353	0.00436	0.00526	0.0064	0.00795	0.00988	0.0129	0.017
in dimethyl carbonate	0.00114	0.00122	0.00127	0.0015	0.00224	0.00267	0.00307	0.00373	0.00404
in ethyl acetate	0.00383	0.00412	0.00477	0.00507	0.00577	0.00655	0.0073	0.00849	0.0102
in isobutanol	0.0349	0.0378	0.0468	0.0522	0.06	0.0683	0.0777	0.0853	0.0973
in isopentanol	0.0363	0.0394	0.0487	0.05	0.0568	0.0634	0.0635	0.0749	0.0807
in isopropanol	0.0772	0.0942	0.105	0.111	0.122	0.134	0.148	0.159	0.171
in methyl acetate	0.00475	0.00537	0.00621	0.00723	0.0085	0.00995	0.0115	0.0139	0.0162
in n-butanol	0.0529	0.058	0.0653	0.0715	0.0789	0.0892	0.0911	0.0979	0.108
in n-butyl acetate	0.00136	0.00179	0.00214	0.00252	0.003	0.00351	0.00388	0.00413	0.00435
in n-propyl acetate	0.00163	0.00185	0.00232	0.00261	0.00289	0.00366	0.0041	0.00509	0.00537
in sec-butanol	0.08	0.0885	0.0967	0.103	0.113	0.125	0.137	0.146	0.159
in water	0.00875	0.00935	0.0115	0.0154	0.021	0.0292	0.0459	0.0726	0.106
